ChEMBL document CHEMBL1949669, “Imidazopyridines as selective CYP3A4 inhibitors” (Bioorg Med Chem Lett, 2012)
≈ marks a conversion by molar mass, not a printed value.

Legend:
[1] = Solubility of the compound; assay type: physicochemical
[2] = Half life in human hepatic S9 fraction; assay type: ADME, subcellular, Liver
[3] = Half life in human liver microsomes; assay type: ADME, Microsome

solubility [1] | half-life [2] | half-life [3] | Compound
2 µM (≈ 0.811 µg/mL) | – | – | O=C(Nc1ccc(-c2ccccc2)cc1)Nc1ccc(-c2ccnc3[nH]cnc23)cc1
– | 8 min | 8 min | CCOC(=O)c1cccc(NC(=O)Nc2ccc(-c3ccnc4[nH]cnc34)cc2)c1
